Data taken from the supplement of paper PMC10307832.

What was measured:
Test in all cases: relative viability (nuclei count vs DMSO), 5 days (fraction); higher = more cells survive
[1] = compound: C1=CC(=CC=C1C2=CC(=C(S2)NC(=O)N)C(=O)N)F [TPCA-1] + C[C@@H](Oc1cc(-c2cnn(C3CCNCC3)c2)cnc1N)c1c(Cl)ccc(F)c1Cl [Crizotinib] (partner 1 µM)
In short: (§1)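 Medians of duplicate plates are given as relative viability. That measure is the nuclei count in treated wells divided by the count in vehicle wells. Counts were taken on 4× images of lung cancer cell lines in 1536-well plates, 5 days after pin-tool dosing the day after seeding with one drug alone or a fixed anchor-drug dose plus five library-drug doses (not always all listed) in √10 steps.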

[2] = compound: C[C@]12O[C@H](C[C@]1(O)CO)n1c3ccccc3c3c4c(c5c6ccccc6n2c5c31)CNC4=O [Lestaurtinib] + Cc1nc(NC(=O)N2CCC[C@H]2C(N)=O)sc1-c1ccnc(C(C)(C)C(F)(F)F)c1 [Alpelisib] (partner 2 µM)
In short: as §1

[3] = compound: C1=CC(=CC=C1C2=CC(=C(S2)NC(=O)N)C(=O)N)F [TPCA-1] + Cc1nc(NC(=O)N2CCC[C@H]2C(N)=O)sc1-c1ccnc(C(C)(C)C(F)(F)F)c1 [Alpelisib] (partner 2 µM)
In short: as §1

[4] = compound: C1/C(=C\C2=CC=CS2)/C(=O)/C(=C/C3=CC=CS3)/C1 + Cc1nc(NC(=O)N2CCC[C@H]2C(N)=O)sc1-c1ccnc(C(C)(C)C(F)(F)F)c1 [Alpelisib] (partner 2 µM)
In short: as §1

Cell Line | relative viability ([1]; first compound 0.04 µM) | relative viability ([1]; first compound 0.1265 µM) | relative viability ([1]; first compound 0.4 µM) | relative viability ([1]; first compound 1.265 µM) | relative viability ([1]; first compound 4 µM) | relative viability ([2]; first compound 0.005 µM) | relative viability ([2]; first compound 0.01581 µM) | relative viability ([2]; first compound 0.05 µM) | relative viability ([2]; first compound 0.1581 µM) | relative viability ([2]; first compound 0.5 µM) | relative viability ([3]; first compound 0.04 µM) | relative viability ([3]; first compound 0.1265 µM) | relative viability ([3]; first compound 0.4 µM) | relative viability ([3]; first compound 1.265 µM) | relative viability ([3]; first compound 4 µM) | relative viability ([4]; first compound 0.2 µM) | relative viability ([4]; first compound 0.6325 µM) | relative viability ([4]; first compound 2 µM) | relative viability ([4]; first compound 6.325 µM) | relative viability ([4]; first compound 20 µM)
Calu-6 | 0.861 | 0.789 | 0.767 | 0.669 | 0.373 | 1.05 | 0.873 | 0.501 | 0.381 | 0.164 | 0.982 | 0.988 | 1.04 | 0.85 | 0.539 | 0.971 | 1.08 | 1.04 | 0.849 | 1.01
ChaGo-K-1 | 1.2 | 1.04 | 1.17 | 0.836 | 0.608 |  |  |  |  |  |  |  |  |  |  |  |  |  |  | 
EBC-1 | 0.206 | 0.175 | 0.201 | 0.195 | 0.222 | 0.851 | 0.948 | 0.658 | 0.624 | 0.298 | 0.843 | 0.77 | 0.892 | 0.933 | 0.626 | 0.852 | 0.923 | 0.947 | 0.786 | 0.845
EKVX | 0.979 | 0.777 | 1.04 | 0.97 | 0.738 | 0.892 | 1.03 | 0.938 | 0.743 | 0.519 | 0.913 | 0.838 | 0.934 | 0.726 | 0.795 | 0.878 | 0.85 | 0.992 | 0.626 | 0.855
EMC-BAC-2 | 0.737 | 0.836 | 0.788 | 0.755 | 0.663 | 0.786 | 0.76 | 0.541 | 0.398 | 0.216 | 0.791 | 0.705 | 0.721 | 0.724 | 0.589 | 0.743 | 0.75 | 0.694 | 0.655 | 0.696
EPLC-272H | 1.02 | 0.93 | 0.868 | 0.888 | 0.58 | 0.896 | 0.917 | 0.575 | 0.522 | 0.556 | 1.09 | 0.793 | 1.06 | 0.851 | 0.863 | 1.1 | 0.881 | 1.05 | 0.831 | 0.841
H3255 | 0.815 | 0.882 | 0.863 | 0.674 | 0.848 | 0.686 | 0.739 | 0.541 | 0.385 | 0.296 | 0.784 | 0.655 | 0.642 | 0.529 | 0.554 | 0.759 | 0.553 | 0.661 | 0.66 | 0.704
HARA | 0.985 | 0.995 | 1.11 | 1.01 | 0.56 | 0.769 | 0.825 | 0.639 | 0.487 | 0.176 | 0.952 | 0.675 | 1.01 | 0.725 | 0.6 | 0.802 | 0.78 | 0.885 | 0.598 | 0.861
HCC-15 | 0.833 | 0.81 | 0.831 | 0.798 | 0.563 | 1.02 | 1.06 | 0.819 | 0.583 | 0.161 | 0.862 | 0.705 | 0.915 | 0.863 | 0.779 | 0.926 | 0.934 | 0.823 | 0.845 | 0.871
